Reference: patent US8507219B2, “Method of treating inflammation with statins” (MUSC Foundation for Research Development, priority 1997, dated 2013)

Assays:
NF-kβ = type: cell-based, rat; conditions: LPS 1.0 μg/ml, 1 h
Description: Preparation of Nuclear Extracts and Electrophoretic Mobility shift assay Nuclear extracts from stimulated or unstimulated astrocytes (1×10^7 cells) were prepared using the method of Dignam et al. (1983) with slight modification. Cells were harvested, washed twice with ice-cold phosphate-buffered saline and lysed in 400 μl of buffer A (10 mM HEPES, pH 7.9, 10 mM KCl, 2 mM MgCl2, 0.5 mM DTT, 1 mM PMSF, 5 μg/ml aprotinin, 5 μg/ml pepstatin A, and 5 μg/ml leupeptin (Sigma, St. Louis, Mo.) containing 0.1% Nondet P-40 for 15 min on ice, vortexed vigorously for 15 s, and centrifuged at 14,000 rpm for 30 s. The pelleted nuclei were resuspended in 40 μl of buffer B (20 mM HEPES, pH 7.9, 25% (v/v) glycerol, 0.42 M NaCl, 1.5 mM MgCl2, 0.2 mM EDTA, 0.5 mM DTT, 1 mM PMSF, 5 μg/ml aprotinin, 5 μg/ml pepstatin A, and 5 μg/ml leupeptin). After 30 min on ice, lysates were centrifuged at 14,000 rpm for 10 min. Supernatants containing the nuclear proteins were diluted with 20 μl of modified buffer C (20 mM HEPES, pH 7.9, 20% (v/v) glycerol, 0.05 M KCl, 0.2 mM EDTA, 0.5 mM DTT, and 0.5 mM PMSF) and stored at −70° C. until use. Nuclear extracts were used for the electrophoretic mobility shift assay using the NF-kβ DNA binding protein detection system kit (GIBCO/BRL), according to the manufacturer's protocol.
Preparation of nuclear extracts and electrophoretic mobility shift assay Nuclear extracts from stimulated or unstimulated astrocytes (1×10^7 cells) were prepared as described (Dignam et al., 1983) with slight modification. Cells were harvested, washed twice with ice-cold phosphate-buffered saline and lysed in 400 μl of buffer A (10 mM HEPES, pH 7.9, 10 mM KCl, 2 mM MgCl2, 0.5 mM DTT, 1 mM PMSF, 5 μg/ml aprotinin, 5 μg/ml pepstatin A, and 5 μg/ml leupeptin) containing 0.1% Nonidet P40 for 15 min on ice, vortexed vigorously for 15 s, and centrifuged at 14,000 rpm for 30 s. […]

[1] = test system: cultured skin fibroblasts of X-ALD; assay: VLCFA ratios (C26:0/C22:0, C24:0/C22:0) in X-ALD skin fibroblasts; type: cell-based, human; conditions: about 15 days of treatment
[2] = test system: iNOS activity in rat primary astrocytes; assay: iNOS activity (arginine to citrulline) in homogenates of treated rat primary astrocytes; type: cell-based; conditions: 10 μM
Description: NOS activity was measured directly by production of L-[2,3,4,5-^3H]citrulline from L-[2,3,4,5-^3H] arginine (Feinstein et al., 1994a). […] Assays were carried out for 30 to 40 min and the production of L-[2,3,4,5-^3H] citrulline was linear. The reactions were stopped by addition of 800 μl of ice-cold 20 mM HEPES (pH 5.5) followed by addition of 2 ml of Dowex-50W equilibrated in the same buffer. The samples were then centrifuged and the concentration of L-[^3H]citrulline was determined in the supernatant by liquid scintillation counting.
Dose Dependence of Forskolin Inhibition of the LPS Stimulation of iNOS Astrocytes were incubated with different concentrations of forskolin 15 min before the addition of 1 μg/ml LPS, and after 24 h the iNOS activity was measured as nitrite concentrations in the supernatant and conversion of arginine to citrulline in the cellular homogenates (FIG. 1). The level of nitrite and iNOS activity were inhibited to a similar degree at all the concentrations of forskolin tested. […] . […] This may be due to the fact that PKA was already completely activated in extracts of cells incubated with 10 μM forskolin. The PKA activity increased with the increase in forskolin concentration. The reciprocal relationship of production of NO and iNOS activity with PKA activity supports the conclusion that PKA plays a pivotal role in the regulation of iNOS expression in astrocytes.

[3] = test system: control human skin fibroblasts; assay: β-oxidation of lignoceric acid in control human skin fibroblasts; type: cell-based

| SMILES | LPS-induced activation of NF-kβ (NF-kβ) | ratios of C26:0/C22:0 and C24:0/C22:0 / level of VLCFA [1] | LPS induced iNOS activity and PKA activity [2] | Lignoceric acid β-oxidation [3] [pmol/h/mg protein] |
| --- | --- | --- | --- | --- |
| COc1cccc(-c2cc(=O)c3ccccc3o2)c1N [PD 98059] | inhibits the LPS-induced activation of NF-kB and the induction of iNOS in astrocytes | – | – | – |
| C=C[C@@]1(C)CC(=O)[C@@H]2[C@@]3(C)CCCC(C)(C)[C@@H]3[C@H](O)[C@H](OC(C)=O)[C@@]2(C)O1 [dideoxyforskolin, 1,9-dideoxyforskolin] | – | had no effect on the ratios of C26:0/C22:0 and C24:0/C22:0 | neither inhibited the LPS induced iNOS activity nor stimulated the PKA activity | 571.4 ± 39.6 |
